Data as given in ChEMBL document CHEMBL5365455, “Design, synthesis and anticancer activity of N-aryl indolylsulfoximines: Identification of potent and selective anticancer agents” (Bioorg Med Chem, 2023).
Each block holds one compound with its values, some of them ahead of it. Active and inactive are the calls of the source. No cut-off for these calls is given here.

Tests used:
[1] = test system: PC-3; assay: Anticancer activity against human PC-3 cells assessed as cell growth inhibition measured after 48 hrs by MTT assay; type: functional, cell-based; conditions: PC-3, 48 h
[2] = test system: MCF7; assay: Anticancer activity against human MCF7 cells assessed as cell growth inhibition measured after 48 hrs by MTT assay; type: functional, cell-based; conditions: MCF7, 48 h
[3] = test system: CWR22R; assay: Anticancer activity against human 22Rv1 cells assessed as cell growth inhibition measured after 48 hrs by MTT assay; type: functional, cell-based; conditions: 22Rv1, 48 h
[4] = test system: HEK293; assay: (§1) Cytotoxicity against HEK293 cells assessed as cell growth inhibition measured after 48 hrs by MTT assay; type: toxicity, cell-based, Homo sapiens; conditions: hek293
[5] = test system: LNCaP C4-2; assay: Anticancer activity against human LNCaP C4-2 cells assessed as cell growth inhibition measured after 48 hrs by MTT assay; type: functional, cell-based; conditions: LNCaP C4-2, 48 h
[6] = test system: Cell membrane; assay: Induction of mitochondrial membrane depolarization in human LNCaP C4-2 cells at 1 ug/ml measured after 48 hrs by JC-1 staining based fluorescence microscopic analysis; type: subcellular; conditions: dose 1.0 µg/ml
[7] = as §1; type: toxicity, cell-based, Homo sapiens; conditions: human, HEK293 cells
[8] = test system: LNCaP C4-2; assay: Induction of apoptosis in human LNCaP C4-2 cells assessed as increase in p53 level at 10 uM measured after 48 hrs by Western blot analysis; type: functional, cell-based
[9] = biological target: T1, Tubulin (Homo sapiens) (UniProt P68371+Q9H4B7+P0DPH7+P68366+Q13509+Q71U36+P04350+Q3ZCM7+P07437+P68363+Q9BQE3+Q6PEY2+Q13885+Q9BVA1+Q9BUF5); assay: Induction of tubulin depolymerization in human LNCaP C4-2 cells assessed as shrinkage of tubulin at 10 uM measured after 48 hrs by fluorescence microscopic analysis; type: cell-based
[10] = test system: LNCaP C4-2; assay: Induction of cell death in human LNCaP C4-2 cells assessed as red fluorescence at 10 uM incubated for 48 hrs by ethidium bromide/acridine orange staining based fluorescent microscopic analysis; type: functional
[11] = test system: LNCaP C4-2; assay: Induction of ROS accumulation in human LNCaP C4-2 cells at 10 uM measured after 48 hrs by H2DCFDA dye based inverted fluorescent microscopic analysis; type: functional, cell-based
[12] = test system: LNCaP C4-2; assay: Inhibition of cell migration in human LNCaP C4-2 cells assessed as reduction in cell motility at 10 uM incubated for 12 to 24 hrs by inverted microscopy based scratch wound healing assay; type: functional; conditions: time 12-24 hrs
[13] = test system: Cell membrane; assay: Induction of mitochondrial membrane depolarization in human LNCaP C4-2 cells at 10 uM measured after 48 hrs by JC-1 staining based fluorescence microscopic analysis; type: subcellular
[14] = biological target: T1, Tubulin (Homo sapiens); assay: Induction of tubulin depolymerization in human LNCaP C4-2 cells assessed as tubulin condensation towards nucleus at 10 uM measured after 48 hrs by fluorescence microscopic analysis; type: cell-based
[15] = test system: LNCaP C4-2; assay: Induction of apoptosis in human LNCaP C4-2 cells assessed as increase in c-Jun level at 10 uM measured after 48 hrs by Western blot analysis; type: functional, cell-based
[16] = test system: LNCaP C4-2; assay: Induction of cytokinesis defect in human LNCaP C4-2 cells at 10 uM measured after 48 hrs by DAPI staining based fluorescence imaging analysis; type: functional, cell-based
[17] = biological target: T1, Tubulin (Homo sapiens); assay: Induction of tubulin depolymerization in human 22Rv1 cells assessed as decrease in polymerized tubulin level at 20 uM measured after 24 hrs by Bradford assay relative to control; type: cell-based; set-up: scale not given: the % may be the effect or the level left
[18] = test system: LNCaP C4-2; assay: Inhibition of colony formation in human LNCaP C4-2 cells assessed as decrease in colony number at 10 uM measured after 10 days by crystal violet staining based assay; type: functional, cell-based; conditions: time 10.0 day

Structure (SMILES): COc1ccc(N=S(C)(=O)c2c[nH]c3ccc(OC)cc23)cc1 (configuration not stated)
IC50 [1]: 12.2 µM | IC50 [2]: > 40 µM | IC50 [3]: 2.76 µM | IC50 [4]: > 40 µM | IC50 [5]: 40 µM

Structure (SMILES): COc1cc(N=S(C)(=O)c2c[nH]c3ccccc23)cc(OC)c1OC (configuration not stated)
IC50 [1]: 21.7 µM | IC50 [2]: 40 µM | IC50 [3]: > 40 µM | IC50 [4]: > 40 µM | IC50 [5]: 10 µM

Structure (SMILES): COc1ccc(N=S(C)(=O)c2c[nH]c3ccccc23)cc1 (configuration not stated)
IC50 [1]: 17.1 µM | IC50 [2]: > 40 µM | IC50 [3]: 3.31 µM | IC50 [4]: > 40 µM | IC50 [5]: 1.95 µM

Structure (SMILES): COc1ccc2[nH]cc(S(C)(=O)=Nc3cc(OC)c(OC)c(OC)c3)c2c1 (configuration not stated)
IC50 [1]: > 40 µM | IC50 [2]: 38.8 µM | IC50 [3]: 2.68 µM | IC50 [4]: > 40 µM | IC50 [5]: > 40 µM

Structure (SMILES): CS(=O)(=Nc1ccc(F)cc1)c1c[nH]c2ccccc12 (configuration not stated)
IC50 [1]: > 40 µM | IC50 [2]: 40 µM | IC50 [3]: 40 µM | IC50 [4]: > 40 µM | IC50 [5]: 3.7 µM

Structure (SMILES): CS(=O)(=Nc1ccccc1)c1c[nH]c2ccccc12 (configuration not stated)
IC50 [1]: > 40 µM | IC50 [2]: 10 µM | IC50 [3]: > 40 µM | IC50 [4]: > 40 µM | IC50 [5]: 8.9 µM

Further lines, with some results ahead:

Activity [6]: Active
Structure (SMILES): COc1ccc(C[C@H](N)C(=O)N[C@H]2[C@@H](O)[C@H](n3cnc4c(N(C)C)ncnc43)O[C@@H]2CO)cc1

IC50 [2]: 2 µM | IC50 [5]: 2.18 µM
Structure (SMILES): CS(=O)(=Nc1cccc(C(F)(F)F)c1)c1c[nH]c2ccccc12 (configuration not stated)
IC50 [3]: > 40 µM | IC50 at 48 h [7]: 40 µM

IC50 [1]: > 40 µM | IC50 [2]: 1.6 µM | IC50 [5]: 2.3 µM
Structure (SMILES): Cc1ccc(N=S(C)(=O)c2c[nH]c3ccccc23)cc1 (configuration not stated)
IC50 [3]: > 40 µM | IC50 at 48 h [7]: 40 µM

IC50 [1]: > 40 µM | IC50 [5]: 40 µM
Structure (SMILES): COc1cc(N=S(C)(=O)c2cn(Cc3ccc(Cl)cc3)c3ccccc23)cc(OC)c1OC (configuration not stated)
IC50 [3]: > 40 µM | IC50 [4]: > 40 µM

IC50 [1]: 11.1 µM | IC50 [2]: > 40 µM | IC50 [5]: > 40 µM
Structure (SMILES): CS(=O)(=Nc1ccc(Br)cc1)c1c[nH]c2ccccc12 (configuration not stated)
IC50 [3]: > 40 µM | IC50 [4]: > 40 µM

IC50 [1]: 3.51 µM | Activity [9]: Active | IC50 [2]: 1.7 µM | Activity [13]: Active | Activity [14]: Active | Activity [17]: 13% | IC50 [5]: 8.2 µM
Structure (SMILES): COc1ccc(N=S(C)(=O)c2c[nH]c3cc(F)ccc23)cc1 (configuration not stated)
Activity [8]: Active | Activity [10]: Active | Activity [11]: Active | inhibition [12]: Active | Activity [15]: Active | Activity [16]: Active | IC50 [3]: 1.91 µM | IC50 at 48 h [7]: > 40 µM | inhibition [18]: Active

IC50 [2]: 1.28 µM
Structure (SMILES): COc1ccc(N=S(C)(=O)c2c[nH]c3ccc(Br)cc23)cc1 (configuration not stated)
IC50 at 48 h [7]: > 40 µM

IC50 [1]: 14.4 µM | IC50 [2]: > 40 µM | IC50 [5]: 1.9 µM
Structure (SMILES): CS(=O)(=Nc1ccc(F)c(F)c1)c1c[nH]c2ccccc12 (configuration not stated)
IC50 [3]: 40 µM | IC50 [4]: > 40 µM
